US9718738B2 (priority 2014, dated 2017)

How the values were obtained:
grain corn = conditions: in vivo
[1] = tested on: long white bunching onions; conditions: in vivo

In the case of urea, the grain yield (grain corn) was 180.5 bu/acre and the “plant height after 6 weeks” value [1] was “performing poorer than no nitrogen fertilizer at all”.
